Assays:
Assay type in all cases: in vivo
[1] = system: blood concentration of total nitric oxides (NOx); assay: Blood total nitric oxides (NOx) level in Beagle dogs after 11-day oral administration, NO3- + NO2- by HPLC; settings: male Beagle dogs, oral once daily, relative to pre-treatment average = 100, mean of 5 dogs
Source text: Simvastatin and atorvastatin synthesized at Chemtech Labo., Inc. were used. Gamma-oryzanol was purchased from Riken Vitamin Co., Ltd. and used. Benfotiamine manufactured at Sankyo Co., Ltd. was used.
Male Beagle dogs of 5 months of age were purchased from Covance Research Products Inc. as the test animals and were used after accommodation breeding for approximately 5 months.
The required amount of the test substance calculated based on the body weight of the test animals was weighed and filled in gelatin capsules (TORPAC Inc., 1/2 oz). After filling up, the capsules were placed in a box divided up for every animal and stored under freezing until use.
The capsules filled up with the test substance were orally administered to the test animals once daily via an oral gavage between 9:00-12:30. The test animals were fasted for 2-3 hrs prior to each administration. The administration period was 11 days.
Approximately 10 mL of blood was collected from the cephalic vein of each dog on—14 and—7 day (the 1st and the 2nd week prior to administration) as well as 4, 8, and 12 days after administration. The animals were fasted for approximately 18 hrs before collection of the blood.
The collected blood was placed in a test tube and allowed to stand at room temperature for 30 min to 1 hour. Then the blood was centrifuged (approximately 1,600 g, for 10 min) and the resultant serum obtained was used for assays.
Nitric oxide synthesized by nitric oxide synthase (NOS) is rapidly converted to nitrate ion (NO3^−) and nitrite ion (NO2^−). Blood concentration of total nitric oxides (NOx) is represented by the sum of NO3^− and NO2^− assayed by HPLC.
Relative values of blood concentration of total nitric oxides (NOx) in animals treated with each dose of simvastatin or atorvastatin calcium, gamma-oryzanol, and benfotiamine alone as well as their medicinal compositions as described above were calculated against each converted average value calculated from that determined 2 weeks and one week before treatment into 100.

[2] = Blood total cholesterol level in Beagle dogs after 11-day oral administration, enzymatic assay; settings: male Beagle dogs, oral once daily, relative to pre-treatment average = 100, mean of 5 dogs, mg/Kg: gamma-oryzanol 100, simvastatin 1
Source text: (§1) Simvastatin and atorvastatin synthesized at Chemtech Labo., Inc. were used. Gamma-oryzanol was purchased from Riken Vitamin Co., Ltd. and used. Benfotiamine manufactured at Sankyo Co., Ltd. was used. Male Beagle dogs of 5 months of age were purchased from Covance Research Products Inc. as the test animals and were used after accommodation breeding for approximately 5 months. The required amount of the test substance calculated based on the body weight of the test animals was weighed and filled in gelatin capsules (TORPAC Inc., 1/2 oz). After filling up, the capsules were placed in a box divided up for every animal and stored under freezing until use. The capsules filled up with the test substance were orally administered to the test animals once daily via an oral gavage between 9:00-12:30. The test animals were fasted for 2-3 hrs prior to each administration. The administration period was 11 days. […] The animals were fasted for approximately 18 hrs before collection of the blood. […] In addition, total cholesterol content was assayed by enzymatic assay method while HDL, LDL, and triglyceride were determined by homogeneous method, chemically modified method, and enzymatic techniques, respectively. ALP was assayed by Bessey-Lowry method. Clinical Laboratory System (TBA-120FR, Toshiba Medical Systems Corporation) was used in all of these determinations. […] The values indicate average results calculated from 5 dogs per group.

[3] = Blood LDL level in Beagle dogs after 11-day oral administration; settings: male Beagle dogs, oral once daily, relative to pre-treatment average = 100, mean of 5 dogs, mg/Kg: gamma-oryzanol 100, simvastatin 1
Source text: as §1

[4] = Atherosclerosis index (LDL/HDL) in Beagle dogs after 11-day oral administration; settings: male Beagle dogs, oral once daily, relative to pre-treatment average = 100, mean of 5 dogs, mg/Kg: gamma-oryzanol 100, simvastatin 1
Source text: as §1

[5] = 4 Days after treatment, mg/Kg: benfotiamine 50, simvastatin 1, atorvastatin calcium 2
[6] = 8 Days after treatment, mg/Kg: benfotiamine 50, simvastatin 1, atorvastatin calcium 2
[7] = 12 Days after treatment, mg/Kg: benfotiamine 50, simvastatin 1, atorvastatin calcium 2

Structure (SMILES) | Changes in blood NOx levels (%) [1, 5] [%] | Changes in blood NOx levels (%) [1, 6] [%] | Changes in blood NOx levels (%) [1, 7] [%] | Changes in blood NOx levels (%) ([1]; 4 Days after treatment, mg/Kg: gamma-oryzanol 100, simvastatin 1) | Changes in blood NOx levels (%) ([1]; 8 Days after treatment, mg/Kg: gamma-oryzanol 100, simvastatin 1) | Changes in blood NOx levels (%) ([1]; 12 Days after treatment, mg/Kg: gamma-oryzanol 100, simvastatin 1) | Changes in blood total cholesterol levels (%) ([2]; 4 Days after treatment) | Changes in blood total cholesterol levels (%) ([2]; 8 Days after treatment) | Changes in blood total cholesterol levels (%) ([2]; 12 Days after treatment) | Changes in blood LDL levels (%) ([3]; 4 Days after treatment) | Changes in blood LDL levels (%) ([3]; 8 Days after treatment) | Changes in blood LDL levels (%) ([3]; 12 Days after treatment) | Changes in atherosclerosis index (LDL/HDL) (%) ([4]; 4 Days after treatment) | Changes in atherosclerosis index (LDL/HDL) (%) ([4]; 8 Days after treatment) | Changes in atherosclerosis index (LDL/HDL) (%) ([4]; 12 Days after treatment)
CC(C)c1c(C(=O)Nc2ccccc2)c(-c2ccccc2)c(-c2ccc(F)cc2)n1CC[C@H](O)C[C@@H](O)CC(=O)O [Atorvastatin calcium, (3R,5S)-7-[2-(4-fluorophenyl)-5-(1-methylethyl)-3-phenyl-4-phenylaminocarbonyl-1H-pyrrol-1-yl]-3,5-dihydroxyheptanoic acid] | 117.7 | 114.1 | 117.9 |  |  |  |  |  |  |  |  |  |  |  | 
C/C(=C(\CCOP(=O)(O)O)SC(=O)c1ccccc1)N(C=O)Cc1cnc(C)nc1N [Benfotiamine] | 96.4 | 91.6 | 107.1 |  |  |  |  |  |  |  |  |  |  |  | 
CCC(C)(C)C(=O)O[C@H]1C[C@@H](C)C=C2C=C[C@H](C)[C@H](CC[C@@H]3C[C@@H](O)CC(=O)O3)[C@H]21 [Simvastatin, (+)-(1S,3R,7S,8S,8aR)-1,2,3,7,8,8a-hexahydro-3,7-dimethyl-8-[2-[ (2R,4R)-tetrahydro-4-hydroxy-6-oxo-2H-pyran-2-yl]ethyl]-1-naphthyl 2,2-dimethylbutyrate] | 101.6 | 85.5 | 121.9 | 101.6 | 85.5 | 121.9 | 94.8 | 94.1 | 92.4 | 83.9 | 90.4 | 81.3 | 86.6 | 93.8 | 86.3

From US20050182036A1, “Medicinal composition containing an HMG-CoA reductase inhibitor” (SANKYO COMPANY, LIMITED, priority 2002, published 2005)
